Assay results taken from PMC8894198, “Biosynthetic Microcin J25 Exerts Strong Antibacterial, Anti-Inflammatory Activities, Low Cytotoxicity Without Increasing Drug-Resistance to Bacteria Target” (Frontiers in Immunology, 2022).
Where a SMILES comes first, the peptide text is derived from it. Bridges are numbered along the chain shown (N, C = ends).

Assays:
RAW 264.7 cells = experiment: LPS-induced inflammation in macrophages; assay type: cell-based, mouse
Protocol: The mouse macrophage cell line RAW 264.7 was obtained in our lab and stored in liquid nitrogen. Cells were cultured in DMEM supplemented with 1% antibiotics (100 U/mL penicillin and 100 µg/mL streptomycin) with 20% FBS at 37°C and 5% CO2. Cells were transferred and inoculated in 12-well plates (1 × 10^4 cells/well) and cultured for 24 h.
RAW 264.7 cells (approximately 2 × 10^4 cells/well) were cultured with 1 µg/mL E. coli LPS for 3 h at 37°C in the absence (control) or presence of 1 μg/mL MccJ25 at 5% CO2. The cells and cell culture supernatants were then collected. Culture supernatant mixed with Griess reagent (1:1) and incubated for 15 min at room temperature. A microplate reader was used to measure […] (NO) at 540 nm. The changes in induced NO levels were clarified based on the comparison between the values of the treated and control groups. Each experiment was repeated three times.
(§1) The concentrations of tumor necrosis factor-α (TNF-α), interleukin-6 (IL-6), IL-4, interferon (IFN)-γ, and nitric oxide (NO) in serum were measured. In addition, TNF-α and NO levels were also measured in the supernatant of RAW264.7 cells. ELISA was performed using a commercial ELISA kit (eBioscience, San Diego, USA). LPS levels in plasma were analyzed using the QCL-1000 kit (Xiamen, China) based on the manufacturer’s standards. On the day of sacrifice, eyes were extracted with ethylenediaminetetraacetic acid (EDTA), and blood was collected into clean test tubes. Peripheral hemograms and white blood cells (WBCs) were analyzed using a Coulter LH755 hematology analyzer. The levels of serum D-lactate were measured using ELISA kit (Jiancheng, Nanjing, China) according to the manufacturer’s protocols.
The extent and mRNA expression levels of TNF-α, IL-6, IL-10, IL-1β, IFN-γ, and TLR4, and NF-κB in each body part of the jejunum, ileum, colon, and spleen and in RAW264.7 cells were clarified by RT–PCR as previously described ([31]). Primers for TNF-α, IL-6, IL-10, IL-1β, IFN-γ, TLR4, and NF-κB are described in Table S1 . […] Combined with gel electrophoresis and a NanoDrop 2000 spectrophotometer (Thermo Fisher Scientific, Wilmington, DE), the quality and quantity of total RNA were determined. […]
Frozen tissue samples and fresh cells were homogenized in RIPA lysis buffer containing protease inhibitors (Applygen, Beijing, China). Protein levels were determined using a BCA protein assay kit (Thermo Fisher Scientific, Rockford, IL). […] Chemofluorescence was detected using the ImageQuant LAS 4000 mini system (GE Healthcare Biosciences AB, Inc., Sweden) with Western Blot Luminance Reagent (Applygen, Beijing, China), and the membranes were cleaned with an ImageQuant TL (GE Healthcare Life Science) gel imaging system for quantification.

[1] = tested on: E. coli O111:B4 LPS-challenged BALB/c mice; experiment: LPS-challenged mice experiment (septicemia model); assay type: in vivo
Protocol: Female BALB/c mice (5-6 weeks) was provided by HFK Bioscience Co. (Beijing, China). All mice were raised in laminar flow cabinets and housed individually in a room with strictly controlled temperature and humidity, where a 12-hour light and 12-hour dark cycle was implemented, and mice had free access to food and water throughout the experimental period.
E. coli O111:B4 LPS (Sigma-Aldrich) at a concentration of 15 mg/L was injected into the peritoneal cavity of female BALB/c mice (age 7 weeks, weight 15 ± 0.5 g), and approximately 30 min after the challenge of E. coli O111:B4 LPS, MccJ25 was orally gavaged to the mice at a concentration of 4.55 or 9.1 mg per kg body weight (BW). The concentrations of MccJ25 were selected based on our previous study ([24]). Mice were followed for 72 h to test the survival rate of mice that were later sacrificed. However, for LPS treated mice, when the lifespan of the mice was around 50%, the mice were sacrificed. The serum from mice were obtained. The lung, liver, spleen, jejunum, and ileum were harvested, kept in liquid nitrogen immediately, stored at -80°C until analysis. For histopathological assessment, tissues and organs were fixed using 4% paraformaldehyde, hematoxylin eosin (H&E) was applied to examine the histological and pathological changes according to the standard protocol as described previously ([24]).
In the LPS-challenged mice experiment, lifespan of mice was monitored for 72 h. In the cocktail of MDR E. coli strains infection experiment, BW change, rectal temperature, diarrhea scores and fecal image, or survival rate were measured. For the diarrhea score evaluation producer was referred to previous study ([24]).
as §1
The extent and mRNA expression levels of TNF-α, IL-6, IL-10, IL-1β, IFN-γ, and TLR4, and NF-κB in each body part of the jejunum, ileum, colon, and spleen and in RAW264.7 cells were clarified by RT–PCR as previously described ([31]). Primers for TNF-α, IL-6, IL-10, IL-1β, IFN-γ, TLR4, and NF-κB are described in Table S1 . The specific assay steps were as follows: total RNA was extracted from the jejunum, ileum, spleen, and cells by TRIzol reagent (Invitrogen, Carlsbad, CA). Combined with gel electrophoresis and a NanoDrop 2000 spectrophotometer (Thermo Fisher Scientific, Wilmington, DE), the quality and quantity of total RNA were determined. […] Then the 2^-ΔΔCt method was used for the next step of analysis.
Frozen tissue samples and fresh cells were homogenized in RIPA lysis buffer containing protease inhibitors (Applygen, Beijing, China). Protein levels were determined using a BCA protein assay kit (Thermo Fisher Scientific, Rockford, IL). Thirty micrograms of tissue and cell protein samples were electrophoresed on SDS polyacrylamide gels and electrotransferred to PVDF membranes (Millipore). […]

plasmid DNA (pGEM-bGAL) = details: 400 ng plasmid DNA, 1 h room temperature, 1% agarose gel
Protocol: Based on the previously worked out method ([27]), briefly, gel retardation experiments were carried out, in which 400 ng of plasmid DNA (pGEM-bGAL; Promega) was increasingly bound to […] of binding buffer in MccJ25 binding and incubated for 1 h at room temperature. Then, […] of local loading buffer in each sample was […], and a 12 μL aliquot was bound to a 1% agarose gel. Finally, 0.5× Tris-borate-EDTA buffer was used for electrophoresis.

CC[C@H](C)[C@H](NC(=O)CNC(=O)[C@@H](NC(=O)[C@H](Cc1ccccc1)NC(=O)[C@H](Cc1ccc(O)cc1)NC(=O)[C@@H]1CCC(=O)NCC(=O)NCC(=O)N[C@@H](C)C(=O)NCC(=O)N[C@@H](Cc2c[nH]cn2)C(=O)N[C@@H](C(C)C)C(=O)N2CCC[C@H]2C(=O)N1)C(C)C)C(=O)NCC(=O)N[C@H](C(=O)N1CCC[C@H]1C(=O)N[C@H](C(=O)N[C@@H](CO)C(=O)N[C@@H](Cc1ccccc1)C(=O)N[C@@H](Cc1ccc(O)cc1)C(=O)NCC(=O)O)[C@@H](C)CC)[C@@H](C)O [MccJ25, microcin J25] (GGAGHVPEYFVGIGTPISFYG-OH; lactam N-8 (inferred); C-terminus assumed)
LPS-stimulated expression of TNF-α and TLR-4 (RT-PCR) (RAW 264.7 cells; LPS 1 µg/mL, MccJ25 1 µg/mL): this stimulatory effect was inhibited | LPS-induced TNF-α and NO secretion (RAW 264.7 cells; LPS 1 µg/mL, MccJ25 1 µg/mL, 3 h): this increase in secretion was alleviated | MyD88, TLR4, TNF-α and IL-6 protein expression (RAW 264.7 cells; western blot, after LPS challenge): sharply decreased | p-NF-κB and MyD88 protein expression (RAW 264.7 cells; western blot, after LPS challenge for 3 h): significantly decreased | jejunum and ileum histopathology ([1]; 4.55 mg/kg BW): moderate villus damage and epithelial cell sloughing | jejunum and ileum histopathology ([1]; 9.1 mg/kg BW, compared with the control group): few changes in the villi, crypts and intestinal mucosa | serum levels of TNF-α, IL-6 and NO ([1]; ELISA, after LPS treatment): showed a decreasing trend | lung histopathology ([1]; H&E): partially reverse swelling and lung damage | liver and spleen histopathology ([1]; H&E, MccJ25 30 min after LPS): substantially reduced the degree of edema and degradation of cytoplasmic proteins | WBC count ([1]; different concentrations of MccJ25 vs LPS group): significantly reduce the counts of leukocytes | TNF-α, TLR4 and IL-6 mRNA expression ([1]; ileum, colon, or spleen, q-PCR): significantly decreased | plasma LPS concentrations ([1]; vs mice treated with LPS only): significantly decreased | phosphorylated NF-κB, p38 MAPK and IκB protein expression ([1]; western blot, vs LPS-infected group): significantly decreased | weight ratio (MccJ25:DNA) at which DNA migration was slightly inhibited (plasmid DNA (pGEM-bGAL)): above 2.0
